Test: gradient 5% acetonitrile 3 min, to 50% in 2 min, to 85% in 15 min, held 3 min, 100 µL/min
Settings: column: Zorbax Extend-C18 2.1 x 50 mm; eluents: water / acetonitrile, 0.1% formic acid
How it was run: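 Values are retention times taken from adduct peaks that software picked and an analyst inspected. The pure standards were run as mixtures of ~100 molecules on HPLC linked to a quadrupole time-of-flight mass spectrometer, in positive and negative ionization mode. A Zorbax Extend-C18 column (2.1 × 50 mm, 1.8 μm) was used at 100 μL/min with water and acetonitrile, each including 0.1% formic acid.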

Going from `CN(C)C(=O)c1nc2ccccn2c1-c1ccc(Cl)cc1` to `COc1ccc(-c2c(C(=O)NCCCN3CCOCC3)nc3ccccn23)cc1`, the RP-LC retention time falls from 674 s to 594 s.

Compared with `CCC1Oc2ccc(S(=O)(=O)N3CCC(C(=O)Nc4ccc(C)cc4Cl)CC3)cc2NC1=O` (configuration not stated), `CC(C)n1c(=O)sc2cc(S(=O)(=O)N3CCC(C(=O)NCc4ccccc4)CC3)ccc21` is lower in RP-LC retention time: 971 s for the first, 932 s for the second.

First: Cc1nc(CCNC(=O)C2CCN(S(=O)(=O)c3ccccc3C(F)(F)F)CC2)cs1
Second: Cc1ccnc(N2CCCC(C(=O)NCCc3ccccc3Cl)C2)n1 (configuration not stated)
The RP-LC retention time of the first is lower: 753 s for the first, 779 s for the second.

Compared with `O=C(Nc1ccc(Br)cc1F)C1CCCN(C(=O)c2cccc(C(F)(F)F)c2)C1` (configuration not stated), `O=C(Nc1cc(C(F)(F)F)ccc1Cl)c1ccc(S(=O)(=O)N2CCCCC2)cc1` is higher in RP-LC retention time: 1060 s for the first, 1080 s for the second.

First: Cc1ccccc1NC(=O)NCCn1c(C(F)(F)F)nc2cccnc21
Second: COCCn1cc(CCNC(=O)Nc2ccc(F)cc2F)c2cccnc21
The RP-LC retention time of the first is higher: 736 s for the first, 729 s for the second.

Compared with `COc1ccc(-n2ccnc(NC(=O)Nc3ccc(C)c(C)c3)c2=O)cc1OC`, `COc1ccc(OC)c(NC(=O)Cn2c(-c3ccc(Cl)cc3)nc(C)cc2=O)c1` is higher in RP-LC retention time: 955 s for the first, 1220 s for the second.

Going from `CC1CCN(S(=O)(=O)c2ccc(-c3nnc(C(=O)NCc4ccc(F)cc4)o3)cc2)CC1` to `O=S(=O)(NCc1ccc(F)cc1)c1ccccc1-c1nc(-c2cccc(F)c2)no1`, the RP-LC retention time rises from 1040 s to 1150 s.

Compared with `COc1ccc(C2C(C(=O)NCc3ccccc3OC)c3ccccc3C(=O)N2C)cc1` (configuration not stated), `COc1ccc(N2CC(C(=O)NCCc3c[nH]c4ccccc34)CC2=O)cc1` (configuration not stated) is lower in RP-LC retention time: 864 s for the first, 725 s for the second.

Going from `CS(=O)(=O)N1CCCCC1C(=O)Nc1nnc(-c2ccco2)o1` (configuration not stated) to `Cc1ccc2c(c1)N(S(C)(=O)=O)CCC(C(=O)NC1CCCCC1)O2` (configuration not stated), the RP-LC retention time rises from 641 s to 914 s.

Going from `Cc1ccc2cc(CCC(=O)NCCN3CCN(C)CC3)c(=O)[nH]c2c1` to `O=C(NCCN1CCCCC1)C1CCN(c2cnn(Cc3ccccc3)c(=O)c2)CC1`, the RP-LC retention time rises from 559 s to 614 s.

Going from `O=C(NCCCn1ncccc1=O)c1ccccc1C(F)(F)F` to `CCn1cc(-c2nc(C(=O)NCc3ccccc3Cl)cs2)c2cccnc21`, the RP-LC retention time rises from 635 s to 1070 s.

Going from `CC1CCN(c2cc(-n3cnc(C(=O)N4CCN(c5ccccc5F)CC4)c3)ncn2)CC1` to `Cn1c(=O)c(N2CCN(C(=O)c3ccc(Br)cc3)CC2)nc2cccnc21`, the RP-LC retention time falls from 1090 s to 911 s.

First: Cc1ccc(Nc2nc3ccncc3n(Cc3ccccc3)c2=O)cc1
Second: Cc1ccccc1-c1noc(Cn2c(=O)n(Cc3ccc(F)cc3)c(=O)c3sccc32)n1
The RP-LC retention time of the first is lower: 778 s for the first, 1150 s for the second.

Going from `CCC(C)NC(=O)C1CC(=O)N(c2ccc3c(c2)CCN3C(=O)C2CC2)C1` (configuration not stated) to `CC(C)c1ccc(NC(=O)C2CCN(c3cncnc3N3CCOCC3)CC2)cc1`, the RP-LC retention time rises from 686 s to 714 s.

Going from `Cc1ccc(NC(=O)Nc2ccc3nncn3c2)cc1F` to `O=C(Nc1ccc2cn[nH]c2c1)c1ccc(F)cc1F`, the RP-LC retention time falls from 723 s to 675 s.

Going from `O=C(CN1C(=O)CCCc2cc(S(=O)(=O)N3CCCCC3)ccc21)Nc1ccc(Cl)cc1F` to `O=C(CN1CCc2ccccc2C1C(=O)N1CCCCC1)NCc1ccc(F)c(Cl)c1` (configuration not stated), the RP-LC retention time falls from 995 s to 936 s.

First: COc1ccc(NC(=O)C2CN(S(C)(=O)=O)CC23CCCCC3)cc1 (configuration not stated)
Second: CCOc1ccc(NC(=O)c2cnc(N3CCN(c4ccc(OC)cc4)CC3)nc2N)cc1
The RP-LC retention time of the first is higher: 852 s for the first, 767 s for the second.

Going from `Cc1ccn2c(Nc3ccc4c(c3)OCCO4)c(-c3ccc(O)cc3)nc2c1` to `CSc1ccc(-c2nc3cnccn3c2Nc2cccc(C(=O)NCC3CCCO3)c2)cc1` (configuration not stated), the RP-LC retention time rises from 719 s to 748 s.

Going from `CC(C)c1ccc(C(=O)N2CCCC2COc2ccc(C(=O)NC3CC3)cc2)cc1` (configuration not stated) to `O=C(COc1ccc(C(=O)N2CCN(CCc3ccccc3)CC2)cc1)C1CC1`, the RP-LC retention time falls from 910 s to 583 s.

Going from `CCNS(=O)(=O)c1cc(-c2c(C)noc2C)ccc1C` to `Cc1cc(C)c(S(=O)(=O)N2CCCC2c2nc(-c3ccc(Cl)cc3)no2)c(C)c1` (configuration not stated), the RP-LC retention time rises from 807 s to 1360 s.

Going from `O=C(CCC(=O)N1CC(n2cnnc2C2CCOCC2)C1)N1CCOCC1` to `O=C(c1ccccc1OCC1CCCNC1)N1CCOCC1` (configuration not stated), the RP-LC retention time rises from 550 s to 576 s.

First: COc1ccc(NC(=O)CCc2nc(-c3ccc(N4CCCC4)cc3)no2)cc1OC
Second: O=C(NCCc1nc(-c2ccccc2)no1)c1sc2cccc(Cl)c2c1Cl
The RP-LC retention time of the first is lower: 936 s for the first, 1200 s for the second.

Compared with `CC(C)OCCCN1C(=O)CN(C2CCCCC2)C(=O)C1c1cccs1` (configuration not stated), `O=C(NCC1CCCCC1)c1ccc2ncnc(N3CCCC3)c2c1` is lower in RP-LC retention time: 991 s for the first, 675 s for the second.

Compared with `O=C(Nc1nccs1)c1ccc(Br)cc1F`, `O=C(Nc1cnc(N2CCCCCC2)nc1)c1ccc(F)cc1F` is higher in RP-LC retention time: 783 s for the first, 954 s for the second.

First: Cc1ccccc1CNC(=O)Cn1cnc2onc(C)c2c1=O
Second: CCn1ccc2sc(C)c(C(=O)NCc3cc(F)ccc3F)c2c1=O
The RP-LC retention time of the first is lower: 738 s for the first, 835 s for the second.

First: CN(C)c1cccc(-c2nc(-c3cn(-c4cccc(F)c4)nn3)no2)c1
Second: CC(C)c1noc(-c2cc(=O)n(CC(=O)Nc3ccc(Cl)cc3)c3ccccc23)n1
The RP-LC retention time of the first is higher: 1110 s for the first, 1060 s for the second.

First: Cc1nc(-c2csc(S(=O)(=O)N3CCC(C(=O)N4CCC(C)CC4)CC3)c2)no1
Second: O=C(NC1CCCCC1)C1CCN(c2nc3ccc(-c4cncnc4)nc3s2)CC1
The RP-LC retention time of the first is higher: 903 s for the first, 830 s for the second.

Going from `Cc1cc(C)cc(NC(=O)N2CC(c3nc(C(C)C)nn3C)C2)c1` to `Cn1cnc(S(=O)(=O)N2CCCC(c3[nH]ccc3C(N)=O)C2)c1` (configuration not stated), the RP-LC retention time falls from 718 s to 586 s.

Compared with `CS(=O)(=O)N1CCC(CNC(=O)CCSc2ccccc2)CC1`, `CCCSCCCNC(=O)C1CCCN(c2nc3ccccc3n(CC)c2=O)C1` (configuration not stated) is higher in RP-LC retention time: 692 s for the first, 1040 s for the second.

Going from `COc1ccc(OC)c(NC(=O)C2Cn3cccc3C(=O)N2C)c1` (configuration not stated) to `CCC(C)NC(=O)N1CCN(Cc2nc3cccnc3n2-c2ccc(OC)cc2)CC1` (configuration not stated), the RP-LC retention time falls from 699 s to 621 s.

Compared with `Cc1cnc(CCC2CCCN2C(=O)CC(F)(F)F)n1C(C)C` (configuration not stated), `CCOC(=O)c1cc(C2CC2)nc2c1c(=O)n(Cc1ccc(Br)cc1F)c(=O)n2C` is higher in RP-LC retention time: 600 s for the first, 1270 s for the second.

Going from `O=C(NCC(=O)N1CCCc2ccccc21)c1ccc(Cl)cc1` to `Cc1ccc(CN2CCN(C3CCN(C(=O)Nc4ccccc4)CC3)C2=O)cc1`, the RP-LC retention time rises from 835 s to 844 s.

Compared with `O=C1CCCc2nc(Nc3nc(-c4ccccc4)c4cc(Cl)ccc4n3)ncc21`, `CN(C)c1ncncc1N1CCC(C(=O)NCc2ccc(Cl)cc2)CC1` is lower in RP-LC retention time: 922 s for the first, 643 s for the second.

Work on `CCN1CCN(C(=O)C2CCc3sc(C(=O)N4CCCC4)cc3C2)CC1` (configuration not stated) yielded an RP-LC retention time of 580 s.

— the METLIN SMRT retention time set (Domingo-Almenara et al. 2019)
